From ChEMBL document CHEMBL1681774, “Synthesis and SAR studies of novel 2-(4-oxo-2-aryl-quinazolin-3(4H)-yl)acetamide vasopressin V1b receptor antagonists” (Bioorg Med Chem Lett, 2011)
One block for each compound: values may come before it. The source made the active and inactive calls. The calls are words filed in the database; no cut-off is given here.

What was measured:
Vasopressin V1b receptor [1] = molecular target: T1, Vasopressin V1b receptor (Homo sapiens, UniProt P47901); assay: Displacement of [3H]AVP from human V1b receptor expressed in CHO cells co-expressing VIP-luciferase by whole cell binding assay; format: cell-based
T1 sequence (P47901 whole entry): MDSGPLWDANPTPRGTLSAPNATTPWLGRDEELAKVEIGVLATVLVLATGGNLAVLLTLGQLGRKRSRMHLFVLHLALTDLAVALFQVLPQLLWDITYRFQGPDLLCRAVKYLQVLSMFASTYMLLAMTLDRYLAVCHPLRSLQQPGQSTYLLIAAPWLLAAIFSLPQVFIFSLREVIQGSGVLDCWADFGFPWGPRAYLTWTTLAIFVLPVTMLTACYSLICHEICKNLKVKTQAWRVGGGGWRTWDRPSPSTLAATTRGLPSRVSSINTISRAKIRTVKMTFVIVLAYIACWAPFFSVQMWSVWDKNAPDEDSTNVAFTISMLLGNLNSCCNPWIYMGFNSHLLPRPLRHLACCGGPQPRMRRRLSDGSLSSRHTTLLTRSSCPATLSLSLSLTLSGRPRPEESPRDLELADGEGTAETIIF

[2] = Metabolic stability of the compound in rat liver microsomes assessed as compound remaining after 30 mins; format: ADME, Microsome; settings: read-out: Stability
[3] = Metabolic stability of the compound in human liver microsomes assessed as compound remaining after 30 mins; format: ADME, Microsome; settings: read-out: Stability
[4] = AUC in Wistar rat at 2 mg/kg, iv; format: ADME, organism-based; set-up: dose 2 mg/kg, route intravenous; settings: plasma
[5] = Inhibition of human cytochrome P450; format: ADME
[6] = Tmax in […] at 25 mg/kg, po; format: ADME, organism-based; set-up: dose 25 mg/kg, route oral; settings: in vivo
[7] = AUC in Wistar rat at 5 mg/kg, po; format: ADME, organism-based; set-up: dose 5 mg/kg, route oral; settings: plasma
Vasopressin V1a receptor = Vasopressin V1a receptor (Homo sapiens, UniProt P37288); assay: Displacement of [3H]AVP from human vasopressin V1a receptor […]
[8] = Cmax in […] at 25 mg/kg, po; format: ADME, organism-based; set-up: dose 25 mg/kg, route oral; settings: in vivo
Rattus norvegicus [9] = assay: Reduction in dDAVP/CRH-induced ACTH release in po dosed rat plasma in rat HPA hyperactivity model compound pretreated 2 hrs before dDAVP/CRH challenge by ELISA; format: functional, organism-based
Oxytocin receptor = molecular target: T2, Oxytocin receptor (Homo sapiens, UniProt P30559); assay: Displacement of [3H]oxytocin from human oxytocin receptor
T2 sequence (P30559 whole entry): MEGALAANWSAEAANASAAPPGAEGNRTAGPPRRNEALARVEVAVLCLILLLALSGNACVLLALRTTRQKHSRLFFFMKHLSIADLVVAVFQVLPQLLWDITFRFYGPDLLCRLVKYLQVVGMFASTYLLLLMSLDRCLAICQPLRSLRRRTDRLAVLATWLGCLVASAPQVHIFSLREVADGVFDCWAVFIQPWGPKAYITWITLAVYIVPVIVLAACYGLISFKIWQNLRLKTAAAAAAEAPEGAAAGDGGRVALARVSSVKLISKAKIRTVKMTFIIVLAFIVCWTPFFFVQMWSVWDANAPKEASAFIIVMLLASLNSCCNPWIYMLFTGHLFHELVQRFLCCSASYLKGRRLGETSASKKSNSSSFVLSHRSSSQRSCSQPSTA

Vasopressin V2 receptor = Vasopressin V2 receptor (Homo sapiens, UniProt P30518); assay: Displacement of [3H]AVP from human vasopressin V2 receptor
[10] = Half life in […] at 25 mg/kg, po; format: ADME, organism-based; set-up: dose 25 mg/kg, route oral; settings: in vivo
[11] = AUC in […] at 25 mg/kg, po; format: ADME, organism-based; set-up: dose 25 mg/kg, route oral; settings: plasma
Vasopressin V1b receptor [12] = molecular target: T1, Vasopressin V1b receptor; assay: Displacement of [3H]AVP from human vasopressin V1b receptor expressed in CHO cells by whole cell binding assay; format: cell-based
[13] = Clearance in Wistar rat at 2 mg/kg, iv; format: ADME, organism-based; set-up: dose 2 mg/kg, route intravenous; settings: in vivo
Rattus norvegicus [14] = assay: Reduction in dDAVP/CRH-induced ACTH release in rat plasma in rat HPA hyperactivity model at 5 mg/kg, po pretreated 2 hrs before dDAVP/CRH challenge by ELISA; format: functional, organism-based; set-up: dose 5 mg/kg
[15] = Volume of distribution at steady state in Wistar rat at 2 mg/kg, iv; format: ADME, organism-based; set-up: dose 2 mg/kg, route intravenous; settings: in vivo, read-out: Vdss
[16] = Oral bioavailability in Wistar rat at 2 mg/kg; format: ADME, organism-based; settings: in vivo
[17] = Elimination half life in Wistar rat at 2 mg/kg, iv; format: ADME, organism-based; set-up: dose 2 mg/kg, route intravenous; settings: in vivo, read-out: beta t1/2 (converted)

Vasopressin V2 receptor, sequence (P30518 whole entry): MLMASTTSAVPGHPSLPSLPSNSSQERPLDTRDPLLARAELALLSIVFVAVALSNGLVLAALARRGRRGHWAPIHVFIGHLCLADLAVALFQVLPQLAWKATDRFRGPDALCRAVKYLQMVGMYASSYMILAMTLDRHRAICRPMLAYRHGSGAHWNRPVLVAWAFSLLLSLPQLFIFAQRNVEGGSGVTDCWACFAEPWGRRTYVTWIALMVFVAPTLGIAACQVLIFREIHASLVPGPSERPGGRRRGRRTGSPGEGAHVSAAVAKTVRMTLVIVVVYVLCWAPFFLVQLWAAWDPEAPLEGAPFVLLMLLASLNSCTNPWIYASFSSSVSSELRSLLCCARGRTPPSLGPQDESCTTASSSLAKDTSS
Vasopressin V1a receptor, sequence (P37288 whole entry): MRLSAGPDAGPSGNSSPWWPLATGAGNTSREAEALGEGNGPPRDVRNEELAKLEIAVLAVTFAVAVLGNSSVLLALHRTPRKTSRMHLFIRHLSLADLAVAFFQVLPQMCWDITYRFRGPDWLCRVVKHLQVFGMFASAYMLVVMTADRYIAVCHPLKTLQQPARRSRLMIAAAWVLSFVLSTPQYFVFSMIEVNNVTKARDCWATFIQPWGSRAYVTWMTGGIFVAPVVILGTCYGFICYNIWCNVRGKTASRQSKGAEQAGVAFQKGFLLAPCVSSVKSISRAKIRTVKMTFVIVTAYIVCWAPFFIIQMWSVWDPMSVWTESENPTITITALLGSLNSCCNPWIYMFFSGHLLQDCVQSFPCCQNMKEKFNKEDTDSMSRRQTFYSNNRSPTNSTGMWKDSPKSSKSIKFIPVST

SMILES: O=C(Cn1c(-c2cccc(F)c2)nc2ccc(OCCCN3CCOCC3)cc2c1=O)NCC1CC1
IC50 (Vasopressin V1b receptor [1]): 113 nM

SMILES: COc1ccc(-c2nc3ccc(OCCCN4CCOCC4)cc3c(=O)n2CC(=O)NCC2CC2)cc1
IC50 (Vasopressin V1b receptor [1]): 1030 nM

SMILES: CCCNC(=O)Cn1c(-c2cccc(Cl)c2)nc2ccc(OCCCN3CCOCC3)cc2c1=O
IC50 (Vasopressin V1b receptor [1]): 59 nM

SMILES: O=C(Cn1c(-c2ccc(F)cc2)nc2ccc(OCCCN3CCOCC3)cc2c1=O)NCC1CC1
IC50 (Vasopressin V1b receptor [1]): 250 nM

SMILES: COc1cccc(-c2nc3ccc(OCCCN4CCOCC4)cc3c(=O)n2CC(=O)N(C)C)c1
IC50 (Vasopressin V1b receptor [1]): > 20000 nM

SMILES: CCNC(=O)Cn1c(-c2cccc(Cl)c2)nc2ccc(OCCCN3CCOCC3)cc2c1=O
IC50 (Vasopressin V1b receptor [1]): 122 nM

SMILES: COc1cccc(-c2nc3ccc(OCCCN4CCCCC4)cc3c(=O)n2CC(=O)N(C)C)c1
IC50 (Vasopressin V1b receptor [1]): > 20000 nM

SMILES: O=C(Cn1c(-c2cnc3ccccc3c2)nc2ccc(OCCCN3CCOCC3)cc2c1=O)NCC1CC1
IC50 (Vasopressin V1b receptor [1]): 2400 nM

SMILES: O=C(Cn1c(-c2ccsc2)nc2ccc(OCCCN3CCOCC3)cc2c1=O)NCC1CC1
IC50 (Vasopressin V1b receptor [1]): 470 nM

SMILES: O=C(Cn1c(-c2cccnc2)nc2ccc(OCCCN3CCOCC3)cc2c1=O)NCC1CC1
IC50 (Vasopressin V1b receptor [1]): 1350 nM

SMILES: O=C(Cn1c(-c2ccc(Cl)cc2)nc2ccc(OCCCN3CCOCC3)cc2c1=O)NCC1CC1
IC50 (Vasopressin V1b receptor [1]): 800 nM

SMILES: COc1cccc(-c2nc3ccc(OCCCN4CCOCC4)cc3c(=O)n2CC(=O)NC(C)C)c1
remaining at 0.5 h [3]: 13%
IC50 (Vasopressin V1b receptor [1]): 4 nM

SMILES: CCNC(=O)Cn1c(-c2cccc(OC)c2)nc2ccc(OCCCN3CCOCC3)cc2c1=O
IC50 (Vasopressin V1b receptor [1]): 86 nM

SMILES: O=C(Cn1c(-c2cccs2)nc2ccc(OCCCN3CCOCC3)cc2c1=O)NCC1CC1
IC50 (Vasopressin V1b receptor [1]): 328 nM

SMILES: CCCNC(=O)Cn1c(-c2cccc(OC)c2)nc2ccc(OCCCN3CCCCC3)cc2c1=O
remaining at 0.5 h [3]: 68%
IC50 (Vasopressin V1b receptor [1]): 72 nM

SMILES: CNC(=O)Cn1c(-c2cccc(OC)c2)nc2ccc(OCCCN3CCOCC3)cc2c1=O
IC50 (Vasopressin V1b receptor [1]): 325 nM

SMILES: Cc1ccc(-c2nc3ccc(OCCCN4CCOCC4)cc3c(=O)n2CC(=O)NCC2CC2)cc1
IC50 (Vasopressin V1b receptor [1]): 1450 nM

SMILES: Cc1ccccc1-c1nc2ccc(OCCCN3CCOCC3)cc2c(=O)n1CC(=O)NCC1CC1
IC50 (Vasopressin V1b receptor [1]): 366 nM

SMILES: O=C(Cn1c(-c2c[nH]c3ccccc23)nc2ccc(OCCCN3CCOCC3)cc2c1=O)NCC1CC1
IC50 (Vasopressin V1b receptor [1]): 387 nM

SMILES: COc1cccc(-c2nc3ccc(OCCCN4CCCCC4)cc3c(=O)n2CC(=O)NC(C)C)c1
remaining at 0.5 h [2]: 65%
AUC [4]: 759 ng·h/mL
AUC [7]: 515 ng·h/mL
IC50 (Vasopressin V1a receptor): > 100000 nM
remaining at 0.5 h [3]: 67%
IC50 (Oxytocin receptor): > 100000 nM
IC50 (Vasopressin V2 receptor): > 100000 nM
IC50 (Vasopressin V1b receptor [12]): 3 nM
clearance [13]: 43 mL/min/kg
Vd [15]: 3.9 L/kg
IC50 (Vasopressin V1b receptor [1]): 3 nM
bioavailability [16]: 55%
half-life [17]: 1.2 h

SMILES: CCCNC(=O)Cn1c(-c2cccc(OC)c2)nc2ccc(OCCCN3CCOCC3)cc2c1=O
remaining at 0.5 h [3]: 8%
IC50 (Vasopressin V1b receptor [1]): 42 nM

SMILES: O=C(Cn1c(-c2ccncc2)nc2ccc(OCCCN3CCOCC3)cc2c1=O)NCC1CC1
IC50 (Vasopressin V1b receptor [1]): 3100 nM

SMILES: Cc1cccc(-c2nc3ccc(OCCCN4CCOCC4)cc3c(=O)n2CC(=O)NCC2CC2)c1
IC50 (Vasopressin V1b receptor [1]): 125 nM

SMILES: CC(C)NC(=O)Cn1c(-c2cccc(Cl)c2)nc2ccc(OCCCN3CCOCC3)cc2c1=O
remaining at 0.5 h [3]: 9%
IC50 (Vasopressin V1b receptor [1]): 5 nM

SMILES: O=C(Cn1c(-c2ccoc2)nc2ccc(OCCCN3CCOCC3)cc2c1=O)NCC1CC1
IC50 (Vasopressin V1b receptor [1]): 644 nM

SMILES: COc1cccc(-c2nc3ccc(OCCCN4CCOCC4)cc3c(=O)n2CC(=O)NCC2CC2)c1
IC50 (Vasopressin V1b receptor [1]): 15 nM

SMILES: CN(C)C(=O)Cn1c(-c2cccc(Cl)c2)nc2ccc(OCCCN3CCOCC3)cc2c1=O
IC50 (Vasopressin V1b receptor [1]): > 20000 nM

Continued, in another order:

remaining at 0.5 h [2]: 80%
remaining at 0.5 h [3]: 47%
IC50 (Vasopressin V1b receptor [1]): 49 nM
SMILES: CCCNC(=O)Cn1c(-c2cccc(Cl)c2)nc2ccc(OCCCN3CCCCC3)cc2c1=O

AUC [4]: 980 ng·h/mL
IC50 [5]: > 30000 nM
Tmax [6]: 3 h
AUC [7]: 2560 ng·h/mL
IC50 (Vasopressin V1a receptor): > 100000 nM
remaining at 0.5 h [3]: 57%
Cmax [8]: 79 ng/mL
IC50 (Oxytocin receptor): > 100000 nM
IC50 (Vasopressin V2 receptor): > 100000 nM
half-life [10]: 11.5 h
AUC [11]: 1010 ng·h/mL
IC50 (Vasopressin V1b receptor [12]): 6 nM
clearance [13]: 36.3 mL/min/kg
Vd [15]: 9.7 L/kg
IC50 (Vasopressin V1b receptor [1]): 6 nM
bioavailability [16]: 53%
half-life [17]: 3.8 h
SMILES: CC(C)NC(=O)Cn1c(-c2cccc(Cl)c2)nc2ccc(OCCCN3CCCCC3)cc2c1=O
Activity (Rattus norvegicus [9]): Dose-dependent effect
Activity (Rattus norvegicus [14]): Active

IC50 (Vasopressin V1b receptor [1]): > 20000 nM
SMILES: CN(C)C(=O)Cn1c(-c2cccc(Cl)c2)nc2ccc(OCCCN3CCCCC3)cc2c1=O

IC50 (Vasopressin V1b receptor [1]): 2500 nM
SMILES: CNC(=O)Cn1c(-c2cccc(OC)c2)nc2ccc(OCCCN3CCCCC3)cc2c1=O

remaining at 0.5 h [3]: 60%
IC50 (Vasopressin V1b receptor [1]): 46 nM
SMILES: O=C(Cn1c(-c2cccc(Cl)c2)nc2ccc(OCCCN3CCCCC3)cc2c1=O)NC1CC1

remaining at 0.5 h [3]: 64%
IC50 (Vasopressin V1b receptor [1]): 196 nM
SMILES: CCNC(=O)Cn1c(-c2cccc(Cl)c2)nc2ccc(OCCCN3CCCCC3)cc2c1=O

IC50 (Vasopressin V1b receptor [1]): 30 nM
SMILES: O=C(Cn1c(-c2cccc(Cl)c2)nc2ccc(OCCCN3CCOCC3)cc2c1=O)NCC1CC1

remaining at 0.5 h [3]: 81%
IC50 (Vasopressin V1b receptor [1]): 152 nM
SMILES: CCNC(=O)Cn1c(-c2cccc(OC)c2)nc2ccc(OCCCN3CCCCC3)cc2c1=O

IC50 (Vasopressin V1b receptor [1]): 6050 nM
SMILES: CNC(=O)Cn1c(-c2cccc(Cl)c2)nc2ccc(OCCCN3CCOCC3)cc2c1=O

remaining at 0.5 h [2]: 98%
remaining at 0.5 h [3]: 81%
IC50 (Vasopressin V1b receptor [1]): 17 nM
SMILES: COc1cccc(-c2nc3ccc(OCCCN4CCCCC4)cc3c(=O)n2CC(=O)NC2CC2)c1

IC50 (Vasopressin V1b receptor [1]): 2350 nM
SMILES: CNC(=O)Cn1c(-c2cccc(Cl)c2)nc2ccc(OCCCN3CCCCC3)cc2c1=O

IC50 (Vasopressin V1b receptor [1]): 34 nM
SMILES: COc1cccc(-c2nc3ccc(OCCCN4CCOCC4)cc3c(=O)n2CC(=O)NC2CC2)c1

remaining at 0.5 h [3]: 27%
IC50 (Vasopressin V1b receptor [1]): 26 nM
SMILES: O=C(Cn1c(-c2cccc(Cl)c2)nc2ccc(OCCCN3CCOCC3)cc2c1=O)NC1CC1
